Reference: patent EP0574808A1, “Amidine-biphenyl derivatives, process for their production & medical preparation containing them” (Dr. Karl Thomae GmbH, priority 1992, dated 1993)

System: Collagen-induzierte Thrombozytenaggregation
Experiment: Ex vivo inhibition of collagen-induced platelet aggregation after oral administration (Born and Cross photometric method)
Details: oral 3 mg/kg, suspended in Natrosol; Rhesusaffen; Collagen 2 µg/ml in platelet-rich plasma
Source text: Beispielsweise wurden die Verbindungen der allgemeinen Formel I auf ihre biologischen Wirkungen wie folgt untersucht: Die Hemmung der Thrombozytenaggregation nach oraler Gabe der Prüfsubstanz wird ex vivo an Rhesusaffen ermittelt.
Direkt vor der oralen Verabreichung der in Natrosol suspendierten Prüfsubstanz wird den Tieren eine Blutprobe aus der Kubitalvene als Referenzwert entnommen. Zu definierten Zeiten nach der Substanzgabe werden erneut Blutproben gewonnen und wie folgt untersucht.
Das mit 3,14% Natriumcitrat im Volumenverhältnis 1:10 versetzte Vollblut wird mit 200 g für 15 Minuten zentrifugiert. Der Überstand an plättchenreichem Plasma wird vorsichtig abgehoben. Aus dem erythrozytenreichen Sediment wird durch Zentrifugation mit 4000 g für 10 Minuten das plättchenarme Plasma als Überstand gewonnen.
Die mit Collagen (Hormonchemie, München; 2 µg/ml Endkonzentration im plättchenreichen Plasma) ausgelöste Thrombozytenaggregation in diesen ex vivo Proben wird nach der Methode von Born und Cross (J. Physiol. 170, 397 (1964)) photometrisch gemessen. Die nach Collagenstimulation gemessene größte Lichtdurchlässigkeit des plättchenreichen Plasmas wird mit dem Referenzwert verglichen, um die Hemmung der Aggregation zu den verschiedenen Zeitpunkten der Blutentnahme nach Substanzgabe relativ zum Referenzwert zu bestimmen.

Structure (SMILES): Cl.N=C(N)c1ccc(-c2ccc(C(=O)N3CCC(CC(=O)OC4CCCCC4)CC3)cc2)cc1 [Beispiel 1, 4-Amidino-4'-[4-(cyclohexyloxycarbonylmethyl)-piperidinocarbonyl]-biphenyl-hydrochlorid]
- Dauer der Hemmung der Collagen-induzierten Thrombozytenaggregation ex vivo: > 4 Stunden
